Test results: ChEMBL document CHEMBL3991601, “The target landscape of clinical kinase drugs” (Science, 2017)
The source made the active and inactive calls. Rule as the data show it, for most assays here: actives have a measured Kd and inactives only a lower limit.

Assays:
[1] = target: T1, Interleukin-1 receptor-associated kinase 3 (Homo sapiens, UniProt Q9Y616)
T1 sequence (Q9Y616 whole entry): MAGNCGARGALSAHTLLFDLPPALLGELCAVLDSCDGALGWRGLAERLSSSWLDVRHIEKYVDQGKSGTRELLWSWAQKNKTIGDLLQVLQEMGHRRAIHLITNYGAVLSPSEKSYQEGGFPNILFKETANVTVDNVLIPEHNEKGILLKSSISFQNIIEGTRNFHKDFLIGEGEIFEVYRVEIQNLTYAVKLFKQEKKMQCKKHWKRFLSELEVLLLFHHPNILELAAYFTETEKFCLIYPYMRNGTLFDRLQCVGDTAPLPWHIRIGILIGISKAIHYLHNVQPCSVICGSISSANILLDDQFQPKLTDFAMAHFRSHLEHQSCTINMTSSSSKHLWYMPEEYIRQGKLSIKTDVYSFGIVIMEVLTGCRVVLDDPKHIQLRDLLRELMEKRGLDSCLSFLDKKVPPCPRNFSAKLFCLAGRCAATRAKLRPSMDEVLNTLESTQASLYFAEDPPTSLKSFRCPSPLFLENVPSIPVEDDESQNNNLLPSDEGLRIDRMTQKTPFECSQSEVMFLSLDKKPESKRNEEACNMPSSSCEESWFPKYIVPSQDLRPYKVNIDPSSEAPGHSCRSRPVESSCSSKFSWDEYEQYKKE

[2] = target: Guanine nucleotide-binding protein G(i) subunit alpha-2 (Homo sapiens, UniProt P04899)
Sequence of Guanine nucleotide-binding protein G(i) subunit alpha-2 (P04899 whole entry): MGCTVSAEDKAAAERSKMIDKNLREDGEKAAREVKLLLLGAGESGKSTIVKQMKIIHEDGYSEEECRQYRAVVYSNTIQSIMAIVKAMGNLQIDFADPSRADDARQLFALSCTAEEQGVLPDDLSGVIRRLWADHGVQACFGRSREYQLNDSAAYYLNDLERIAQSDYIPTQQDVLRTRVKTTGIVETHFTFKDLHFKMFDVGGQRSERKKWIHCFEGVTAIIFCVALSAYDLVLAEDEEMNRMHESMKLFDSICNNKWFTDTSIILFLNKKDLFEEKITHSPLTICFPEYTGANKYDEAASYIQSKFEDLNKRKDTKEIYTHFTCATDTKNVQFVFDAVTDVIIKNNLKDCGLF

[3] = target: Protein-tyrosine kinase 6 (Homo sapiens, UniProt Q13882)
Sequence of Protein-tyrosine kinase 6 (Q13882 whole entry): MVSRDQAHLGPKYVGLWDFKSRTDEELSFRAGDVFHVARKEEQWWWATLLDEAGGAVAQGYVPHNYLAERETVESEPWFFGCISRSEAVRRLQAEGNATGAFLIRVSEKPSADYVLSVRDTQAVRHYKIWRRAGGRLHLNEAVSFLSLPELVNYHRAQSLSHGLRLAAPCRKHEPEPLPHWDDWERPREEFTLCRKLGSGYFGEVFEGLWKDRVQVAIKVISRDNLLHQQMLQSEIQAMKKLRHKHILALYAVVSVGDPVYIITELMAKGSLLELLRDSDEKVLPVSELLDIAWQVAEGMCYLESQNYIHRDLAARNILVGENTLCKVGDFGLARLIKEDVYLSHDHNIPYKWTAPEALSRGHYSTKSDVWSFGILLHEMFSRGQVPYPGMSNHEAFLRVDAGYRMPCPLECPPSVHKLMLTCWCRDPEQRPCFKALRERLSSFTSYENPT

[4] = target: T2, Serine/threonine-protein kinase TAO2 (Homo sapiens, UniProt Q9UL54)
T2 sequence (Q9UL54 whole entry): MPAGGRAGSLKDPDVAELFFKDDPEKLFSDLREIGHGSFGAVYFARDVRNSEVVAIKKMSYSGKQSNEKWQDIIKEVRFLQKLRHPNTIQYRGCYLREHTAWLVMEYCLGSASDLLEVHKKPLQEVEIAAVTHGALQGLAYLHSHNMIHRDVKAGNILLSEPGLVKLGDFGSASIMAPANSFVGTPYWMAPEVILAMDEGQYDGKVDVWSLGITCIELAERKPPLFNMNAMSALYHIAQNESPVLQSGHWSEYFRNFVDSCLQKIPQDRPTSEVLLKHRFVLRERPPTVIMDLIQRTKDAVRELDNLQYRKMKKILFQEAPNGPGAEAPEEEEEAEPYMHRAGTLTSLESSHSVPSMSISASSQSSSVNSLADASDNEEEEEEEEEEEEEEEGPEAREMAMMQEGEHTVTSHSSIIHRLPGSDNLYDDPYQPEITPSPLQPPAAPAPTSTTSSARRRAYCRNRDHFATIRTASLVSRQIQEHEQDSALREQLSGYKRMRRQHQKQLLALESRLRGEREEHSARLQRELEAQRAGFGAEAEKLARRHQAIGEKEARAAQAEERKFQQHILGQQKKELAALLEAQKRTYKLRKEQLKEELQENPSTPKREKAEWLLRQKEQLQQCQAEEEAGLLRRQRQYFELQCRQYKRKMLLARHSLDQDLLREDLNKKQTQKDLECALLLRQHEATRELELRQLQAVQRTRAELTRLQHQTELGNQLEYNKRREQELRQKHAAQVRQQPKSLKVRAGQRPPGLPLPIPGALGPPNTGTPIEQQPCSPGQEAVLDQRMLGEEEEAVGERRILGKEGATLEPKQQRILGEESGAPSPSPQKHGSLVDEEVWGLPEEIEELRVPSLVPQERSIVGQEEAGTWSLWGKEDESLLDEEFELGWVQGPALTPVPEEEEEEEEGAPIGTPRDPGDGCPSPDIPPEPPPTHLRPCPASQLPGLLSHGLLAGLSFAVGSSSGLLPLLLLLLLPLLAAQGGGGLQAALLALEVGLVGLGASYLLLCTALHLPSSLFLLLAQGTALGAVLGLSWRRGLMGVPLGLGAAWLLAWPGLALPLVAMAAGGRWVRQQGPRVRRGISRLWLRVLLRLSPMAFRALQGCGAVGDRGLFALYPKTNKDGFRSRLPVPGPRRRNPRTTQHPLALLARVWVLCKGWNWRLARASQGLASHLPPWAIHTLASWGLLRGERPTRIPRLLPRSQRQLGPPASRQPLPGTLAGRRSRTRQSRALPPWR

[5] = target: Receptor-interacting serine/threonine-protein kinase 3 (Homo sapiens, UniProt Q9Y572)
Sequence of Receptor-interacting serine/threonine-protein kinase 3 (Q9Y572 whole entry): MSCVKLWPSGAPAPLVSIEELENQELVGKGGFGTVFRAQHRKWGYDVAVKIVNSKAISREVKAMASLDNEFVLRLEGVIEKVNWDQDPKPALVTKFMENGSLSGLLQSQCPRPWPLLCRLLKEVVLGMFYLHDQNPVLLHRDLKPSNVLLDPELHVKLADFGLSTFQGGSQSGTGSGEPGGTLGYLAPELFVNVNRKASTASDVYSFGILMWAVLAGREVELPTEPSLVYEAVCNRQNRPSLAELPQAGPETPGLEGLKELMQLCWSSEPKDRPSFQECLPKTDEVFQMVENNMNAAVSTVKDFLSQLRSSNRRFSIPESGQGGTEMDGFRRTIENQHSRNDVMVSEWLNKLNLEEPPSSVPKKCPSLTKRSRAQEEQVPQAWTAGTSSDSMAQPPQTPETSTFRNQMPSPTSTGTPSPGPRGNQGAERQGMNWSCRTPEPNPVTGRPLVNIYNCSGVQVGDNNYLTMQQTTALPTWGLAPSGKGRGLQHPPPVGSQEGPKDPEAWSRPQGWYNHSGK

[6] = target: Tyrosine-protein kinase HCK (Homo sapiens, UniProt P08631)
Sequence of Tyrosine-protein kinase HCK (P08631 whole entry): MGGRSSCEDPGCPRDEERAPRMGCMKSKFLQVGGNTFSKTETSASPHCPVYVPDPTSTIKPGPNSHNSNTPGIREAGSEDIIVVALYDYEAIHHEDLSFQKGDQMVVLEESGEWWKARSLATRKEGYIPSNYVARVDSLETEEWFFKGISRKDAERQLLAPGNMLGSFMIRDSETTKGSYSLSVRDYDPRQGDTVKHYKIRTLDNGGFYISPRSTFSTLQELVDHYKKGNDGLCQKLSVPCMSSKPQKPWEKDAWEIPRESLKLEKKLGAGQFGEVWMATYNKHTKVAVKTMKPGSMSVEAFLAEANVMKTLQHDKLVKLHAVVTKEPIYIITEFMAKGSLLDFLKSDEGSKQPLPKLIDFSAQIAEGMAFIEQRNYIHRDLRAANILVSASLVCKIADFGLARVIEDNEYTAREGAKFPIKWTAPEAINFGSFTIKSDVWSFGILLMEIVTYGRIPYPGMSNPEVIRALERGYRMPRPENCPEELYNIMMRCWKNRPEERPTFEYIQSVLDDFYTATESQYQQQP

[7] = target: Calcium/calmodulin-dependent protein kinase type II subunit delta (Homo sapiens, UniProt Q13557)
Sequence of Calcium/calmodulin-dependent protein kinase type II subunit delta (Q13557 whole entry): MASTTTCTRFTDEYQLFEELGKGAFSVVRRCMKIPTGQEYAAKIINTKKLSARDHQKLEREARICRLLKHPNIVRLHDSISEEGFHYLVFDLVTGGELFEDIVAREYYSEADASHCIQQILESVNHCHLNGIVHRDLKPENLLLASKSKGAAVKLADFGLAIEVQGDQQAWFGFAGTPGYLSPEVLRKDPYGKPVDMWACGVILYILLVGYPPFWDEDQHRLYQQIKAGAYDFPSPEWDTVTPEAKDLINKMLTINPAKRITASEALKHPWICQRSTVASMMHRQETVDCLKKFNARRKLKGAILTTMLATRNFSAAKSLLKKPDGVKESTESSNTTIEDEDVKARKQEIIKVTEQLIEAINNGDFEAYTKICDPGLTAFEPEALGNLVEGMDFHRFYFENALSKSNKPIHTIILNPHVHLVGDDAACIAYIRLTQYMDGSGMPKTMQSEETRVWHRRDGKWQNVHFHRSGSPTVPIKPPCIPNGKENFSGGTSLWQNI

[8] = target: Serine/threonine-protein kinase pim-1 (Homo sapiens, UniProt P11309)
Sequence of Serine/threonine-protein kinase pim-1 (P11309 whole entry): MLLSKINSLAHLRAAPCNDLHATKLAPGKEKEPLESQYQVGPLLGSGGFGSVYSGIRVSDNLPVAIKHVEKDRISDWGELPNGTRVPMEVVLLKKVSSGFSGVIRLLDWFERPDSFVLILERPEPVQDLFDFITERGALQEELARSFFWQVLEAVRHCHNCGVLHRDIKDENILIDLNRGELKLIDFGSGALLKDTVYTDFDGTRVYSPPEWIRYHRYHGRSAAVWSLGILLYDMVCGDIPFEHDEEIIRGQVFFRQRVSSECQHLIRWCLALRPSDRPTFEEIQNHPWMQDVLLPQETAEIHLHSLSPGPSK

[9] = target: 26S proteasome regulatory subunit 6B (Homo sapiens, UniProt P43686)
Sequence of 26S proteasome regulatory subunit 6B (P43686 whole entry, the tested form may be a part): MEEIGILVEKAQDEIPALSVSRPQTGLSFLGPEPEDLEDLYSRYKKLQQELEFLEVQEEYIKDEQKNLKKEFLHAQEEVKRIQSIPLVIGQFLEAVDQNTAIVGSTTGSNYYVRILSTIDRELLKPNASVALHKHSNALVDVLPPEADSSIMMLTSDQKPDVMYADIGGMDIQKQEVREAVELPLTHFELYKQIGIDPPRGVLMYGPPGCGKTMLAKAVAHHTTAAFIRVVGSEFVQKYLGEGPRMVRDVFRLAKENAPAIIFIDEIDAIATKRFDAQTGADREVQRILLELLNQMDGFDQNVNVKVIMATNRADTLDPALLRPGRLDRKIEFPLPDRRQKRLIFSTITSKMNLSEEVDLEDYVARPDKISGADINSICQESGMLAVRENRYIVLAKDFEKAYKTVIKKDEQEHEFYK

[10] = target: Epithelial discoidin domain-containing receptor 1 (Homo sapiens, UniProt Q08345)
Sequence of Epithelial discoidin domain-containing receptor 1 (Q08345 whole entry, the tested form may be a part): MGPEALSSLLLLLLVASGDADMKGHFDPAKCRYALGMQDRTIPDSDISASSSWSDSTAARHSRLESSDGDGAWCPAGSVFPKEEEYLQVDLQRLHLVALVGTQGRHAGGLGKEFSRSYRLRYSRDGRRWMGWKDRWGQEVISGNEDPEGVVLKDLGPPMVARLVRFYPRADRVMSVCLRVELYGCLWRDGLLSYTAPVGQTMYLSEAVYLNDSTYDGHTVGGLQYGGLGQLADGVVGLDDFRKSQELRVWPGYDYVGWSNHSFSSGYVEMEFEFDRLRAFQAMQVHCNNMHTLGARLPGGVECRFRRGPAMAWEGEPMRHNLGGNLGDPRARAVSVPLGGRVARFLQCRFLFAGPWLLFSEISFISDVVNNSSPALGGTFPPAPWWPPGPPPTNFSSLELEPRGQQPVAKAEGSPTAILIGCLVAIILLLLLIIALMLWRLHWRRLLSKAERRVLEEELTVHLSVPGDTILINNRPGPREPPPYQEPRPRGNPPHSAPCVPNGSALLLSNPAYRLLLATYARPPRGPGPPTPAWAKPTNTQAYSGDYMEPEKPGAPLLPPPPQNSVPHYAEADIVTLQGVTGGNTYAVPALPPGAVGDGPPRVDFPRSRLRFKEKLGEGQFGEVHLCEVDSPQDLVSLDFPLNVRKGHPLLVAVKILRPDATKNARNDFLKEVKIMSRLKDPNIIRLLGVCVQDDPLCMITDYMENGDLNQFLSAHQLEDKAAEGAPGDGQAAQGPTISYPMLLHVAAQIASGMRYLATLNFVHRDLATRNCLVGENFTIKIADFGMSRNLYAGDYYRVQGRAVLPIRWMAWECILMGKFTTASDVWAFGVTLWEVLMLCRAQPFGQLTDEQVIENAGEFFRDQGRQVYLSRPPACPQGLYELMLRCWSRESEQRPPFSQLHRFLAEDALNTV

[11] = target: Mitogen-activated protein kinase 9 (Homo sapiens, UniProt P45984)
Sequence of Mitogen-activated protein kinase 9 (P45984 whole entry): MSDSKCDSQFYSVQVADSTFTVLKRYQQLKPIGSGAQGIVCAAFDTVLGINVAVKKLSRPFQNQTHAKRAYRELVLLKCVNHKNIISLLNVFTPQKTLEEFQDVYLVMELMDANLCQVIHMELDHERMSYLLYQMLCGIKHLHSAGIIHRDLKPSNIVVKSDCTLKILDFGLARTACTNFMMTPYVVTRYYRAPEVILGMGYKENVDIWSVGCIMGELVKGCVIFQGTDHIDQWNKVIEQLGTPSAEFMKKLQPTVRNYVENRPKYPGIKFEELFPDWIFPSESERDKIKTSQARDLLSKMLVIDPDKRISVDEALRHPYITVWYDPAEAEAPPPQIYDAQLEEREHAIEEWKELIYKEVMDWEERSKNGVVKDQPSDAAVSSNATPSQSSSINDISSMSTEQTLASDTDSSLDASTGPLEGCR

[12] = target: T3, Heme oxygenase 2 (Homo sapiens, UniProt P30519)
T3 sequence (P30519 whole entry): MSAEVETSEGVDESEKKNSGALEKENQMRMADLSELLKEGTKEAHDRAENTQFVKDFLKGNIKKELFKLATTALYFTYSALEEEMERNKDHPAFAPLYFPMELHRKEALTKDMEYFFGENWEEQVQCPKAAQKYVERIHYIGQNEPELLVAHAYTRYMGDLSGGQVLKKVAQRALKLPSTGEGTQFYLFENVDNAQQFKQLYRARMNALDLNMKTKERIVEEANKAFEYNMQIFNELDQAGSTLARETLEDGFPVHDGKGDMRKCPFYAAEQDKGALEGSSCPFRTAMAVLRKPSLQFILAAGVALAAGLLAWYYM

[13] = target: LIM domain kinase 1 (Homo sapiens, UniProt P53667)
Also: in the data inactive means no Kd found up to 30 µM.

SMILES: CC1(COc2ccc3c(c2)ncn3-c2ccc3cccc(N4CCC(N)CC4)c3n2)COC1 [CRENOLANIB]
- Kd [1]: 1.51 µM (active)
- Kd [2]: > 30 µM (inactive)
- Kd [3]: > 30 µM (inactive)
- Kd [4]: > 30 µM (inactive)
- Kd [5]: > 30 µM (inactive)
- Kd [6]: > 30 µM (inactive)
- Kd [7]: 0.821 µM (active)
- Kd [8]: > 30 µM (inactive)
- Kd [9]: > 30 µM (inactive)
- Kd [10]: > 30 µM (inactive)
- Kd [11]: > 30 µM (inactive)
- Kd [12]: > 30 µM (inactive)
- Kd [13]: > 30 µM (inactive)

SMILES: COc1cccc2cc(-c3nc([C@H]4CC[C@H](C(=O)O)CC4)n4ncnc(N)c34)[nH]c12 [OSI-027]
- Kd [1]: > 30 µM (inactive)
- Kd [2]: > 30 µM (inactive)
- Kd [3]: > 30 µM (inactive)
- Kd [4]: > 30 µM (inactive)
- Kd [5]: > 30 µM (inactive)
- Kd [6]: > 30 µM (inactive)
- Kd [7]: > 30 µM (inactive)
- Kd [8]: > 30 µM (inactive)
- Kd [9]: > 30 µM (inactive)
- Kd [10]: > 30 µM (inactive)
- Kd [11]: > 30 µM (inactive)
- Kd [12]: > 30 µM (inactive)
- Kd [13]: > 30 µM (inactive)

SMILES: O=C(NC[C@H](O)CO)c1ccncc1Nc1ccc(I)cc1F [PIMASERTIB]
- Kd [1]: > 30 µM (inactive)
- Kd [2]: > 30 µM (inactive)
- Kd [3]: > 30 µM (inactive)
- Kd [4]: > 30 µM (inactive)
- Kd [5]: > 30 µM (inactive)
- Kd [6]: > 30 µM (inactive)
- Kd [7]: > 30 µM (inactive)
- Kd [8]: > 30 µM (inactive)
- Kd [9]: > 30 µM (inactive)
- Kd [10]: > 30 µM (inactive)
- Kd [11]: > 30 µM (inactive)
- Kd [12]: > 30 µM (inactive)
- Kd [13]: > 30 µM (inactive)

SMILES: CN1CCN(c2nc(C3=C(c4c[nH]c5ccccc45)C(=O)NC3=O)c3ccccc3n2)CC1 [SOTRASTAURIN]
- Kd [1]: > 30 µM (inactive)
- Kd [2]: > 30 µM (inactive)
- Kd [3]: > 30 µM (inactive)
- Kd [4]: > 30 µM (inactive)
- Kd [5]: > 30 µM (inactive)
- Kd [6]: > 30 µM (inactive)
- Kd [7]: > 30 µM (inactive)
- Kd [8]: 8.84 µM
- Kd [9]: > 30 µM (inactive)
- Kd [10]: > 30 µM (inactive)
- Kd [11]: > 30 µM (inactive)
- Kd [12]: > 30 µM (inactive)
- Kd [13]: > 30 µM (inactive)

SMILES: c1cc(OCCN2CCCCC2)cc(-c2n[nH]c3ccc(-c4nc[nH]n4)cc23)c1 [CC-401]
- Kd [1]: > 30 µM (inactive)
- Kd [2]: > 30 µM (inactive)
- Kd [3]: > 30 µM (inactive)
- Kd [4]: > 30 µM (inactive)
- Kd [5]: > 30 µM (inactive)
- Kd [6]: > 30 µM (inactive)
- Kd [7]: > 30 µM (inactive)
- Kd [8]: > 30 µM (inactive)
- Kd [9]: > 30 µM (inactive)
- Kd [10]: > 30 µM (inactive)
- Kd [11]: 0.34 µM (active)
- Kd [12]: > 30 µM (inactive)
- Kd [13]: > 30 µM (inactive)

SMILES: O=c1[nH]c([C@@H]2CCCN2)nc2c1oc1ccc(Cl)cc12
- Kd [1]: > 30 µM (inactive)
- Kd [2]: > 30 µM (inactive)
- Kd [3]: > 30 µM (inactive)
- Kd [4]: > 30 µM (inactive)
- Kd [5]: > 30 µM (inactive)
- Kd [6]: > 30 µM (inactive)
- Kd [7]: > 30 µM (inactive)
- Kd [8]: 0.022 µM (active)
- Kd [9]: > 30 µM (inactive)
- Kd [10]: > 30 µM (inactive)
- Kd [11]: > 30 µM (inactive)
- Kd [12]: > 30 µM (inactive)
- Kd [13]: > 30 µM (inactive)

SMILES: O=S(=O)(c1cccc2c(O)nccc12)N1CCCNCC1 [HYDROXYFASUDIL]
- Kd [1]: > 30 µM (inactive)
- Kd [2]: > 30 µM (inactive)
- Kd [3]: > 30 µM (inactive)
- Kd [4]: > 30 µM (inactive)
- Kd [5]: > 30 µM (inactive)
- Kd [6]: > 30 µM (inactive)
- Kd [7]: > 30 µM (inactive)
- Kd [8]: > 30 µM (inactive)
- Kd [9]: > 30 µM (inactive)
- Kd [10]: > 30 µM (inactive)
- Kd [11]: > 30 µM (inactive)
- Kd [12]: > 30 µM (inactive)
- Kd [13]: > 30 µM (inactive)
